# US20110082114A1, “Methods of Treating Aneurysmal Dilatation, Blood Vessel Wall Weakness and Specifically Abdominal Aortic and Thoracic Aneurysm Using Matrix Metalloprotease-2 Inhibitors” (SYMPHONY EVOLUTION, INC., priority 2009, published 2011)
# Molecular target: T1, mADAM-10 or hADAM-10 (UniProt O14672)
# T1 sequence (O14672 1-748): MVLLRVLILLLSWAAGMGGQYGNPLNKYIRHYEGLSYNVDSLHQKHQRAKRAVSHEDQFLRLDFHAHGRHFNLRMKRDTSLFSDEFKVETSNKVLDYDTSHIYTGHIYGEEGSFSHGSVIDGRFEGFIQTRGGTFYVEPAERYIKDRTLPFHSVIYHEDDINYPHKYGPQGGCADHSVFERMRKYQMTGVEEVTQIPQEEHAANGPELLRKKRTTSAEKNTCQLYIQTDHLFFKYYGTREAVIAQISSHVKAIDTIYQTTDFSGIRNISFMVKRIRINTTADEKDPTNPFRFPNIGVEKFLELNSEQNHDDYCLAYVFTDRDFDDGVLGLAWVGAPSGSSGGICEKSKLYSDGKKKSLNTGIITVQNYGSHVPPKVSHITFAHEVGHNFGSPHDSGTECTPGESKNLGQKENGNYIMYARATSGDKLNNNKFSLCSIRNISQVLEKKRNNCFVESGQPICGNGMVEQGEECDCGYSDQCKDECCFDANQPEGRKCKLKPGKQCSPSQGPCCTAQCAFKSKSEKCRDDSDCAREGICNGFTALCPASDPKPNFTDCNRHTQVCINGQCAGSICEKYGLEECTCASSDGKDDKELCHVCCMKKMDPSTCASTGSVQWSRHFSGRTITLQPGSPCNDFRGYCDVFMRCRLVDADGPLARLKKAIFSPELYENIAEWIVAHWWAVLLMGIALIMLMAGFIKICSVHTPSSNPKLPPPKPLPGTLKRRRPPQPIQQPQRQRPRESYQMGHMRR
# Assay: ADAM-10 enzyme assay (fluorogenic peptide cleavage);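 further: fluorescence from cleavage of a quenched 10-residue DABCYL/EDANS peptide by 5 nM enzyme in HEPES pH 8.0 buffer, 16 hr at room temperature, compounds serially diluted 100 µM to 0.5 nM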
# Format: biochemical
# Description: mADAM-10 or hADAM-10 activity was measured as the ability to cleave a 10-residue peptide (DABCYL-Leu-Leu-Ala-Gln-Lys-*-Leu-Arg-Ser-Ser-Arg-EDANS). […] Enzyme was diluted to a final active concentration of 5 nM in Buffer A (50 mM HEPES 8.0, 100 mM NaCl, 1 mM CaCl2 and 0.01% NP-40). Serial dilutions for compounds were performed ranging from 100 μM to 0.5 nM using a Beckman Biomek 2000 in polypropylene plates (Greiner). […] This reaction was incubated for 16 hr at RT and fluorescence was read using identical conditions.
row,Compound,IC50 [nM]
1,O=C(NO)[C@H]1CN(C(=O)Cc2cccnc2)CCN1S(=O)(=O)c1cc(F)c(Oc2ccc(Cl)cc2)c(F)c1 [Entry 47],< 50
2,CC(C)(C)OC(=O)N1CCN(S(=O)(=O)c2cc(F)c(Oc3ccc(F)cc3)c(F)c2)[C@@H](C(=O)NO)C1 [Entry 9],< 50
3,CN1CCC(OC(=O)N2CCN(S(=O)(=O)c3cc(F)c(Oc4ccc(Cl)cc4)c(F)c3)[C@@H](C(=O)NO)C2)CC1 [Entry 22],< 50
4,O=C(NO)[C@H]1CN(C(=O)c2cccnc2)CCN1S(=O)(=O)c1cc(F)c(Oc2ccc(Cl)cc2)c(F)c1 [Entry 59],< 50
5,CCOC(=O)N1CCN(CC(=O)N2CCN(S(=O)(=O)c3cc(F)c(Oc4ccc(Cl)cc4)c(F)c3)[C@@H](C(=O)NO)C2)CC1 [Entry 23],< 50
6,O=C(NO)[C@H]1CN(C(=O)CN2CCCCC2)CCN1S(=O)(=O)c1cc(F)c(Oc2ccc(Cl)cc2)c(F)c1 [Entry 26],< 50
7,O=C(NO)[C@H]1CN(C(=O)c2ccc(-c3ccccc3)cc2)CCN1S(=O)(=O)c1cc(F)c(Oc2ccc(Cl)cc2)c(F)c1 [Entry 51],50 to 1000
8,CN1CCN(CCS(=O)(=O)N2CCN(S(=O)(=O)c3cc(F)c(Oc4ccc(Cl)cc4)c(F)c3)[C@@H](C(=O)NO)C2)CC1 [Entry 55],< 50
9,O=C(NO)[C@H]1CN(S(=O)(=O)Cc2cc(Cl)cc(Cl)c2)CCN1S(=O)(=O)c1cc(F)c(Oc2ccc(Cl)cc2)c(F)c1 [Entry 61],50 to 1000
10,O=C(NO)[C@H]1CN(C(=O)c2ccncc2)CCN1S(=O)(=O)c1cc(F)c(Oc2ccc(Cl)cc2)c(F)c1 [Entry 42],< 50
11,CN(C)S(=O)(=O)N1CCN(S(=O)(=O)c2cc(F)c(Oc3ccc(Cl)cc3)c(F)c2)[C@@H](C(=O)NO)C1 [Entry 36],< 50
12,COCCOC(=O)N1CCN(S(=O)(=O)c2ccc(Oc3ccc(F)cc3)nc2)[C@@H](C(=O)NO)C1 [Entry 65],50 to 1000
13,O=C(NO)[C@H]1CN(C(=O)CN2CCOCC2)CCN1S(=O)(=O)c1cc(F)c(Oc2ccc(Cl)cc2)c(F)c1 [Entry 25],< 50
14,O=C(NO)[C@H]1CN(C(=O)N2CCOCC2)CCN1S(=O)(=O)c1cc(F)c(Oc2ccc(Cl)cc2)c(F)c1 [Entry 30],< 50
15,O=C(NO)[C@H]1CN(S(=O)(=O)c2cccnc2O)CCN1S(=O)(=O)c1cc(F)c(Oc2ccc(Cl)cc2)c(F)c1 [Entry 45],< 50
16,CN1CCN(CC(=O)N2CCN(S(=O)(=O)c3cc(F)c(Oc4ccc(Cl)cc4)c(F)c3)[C@@H](C(=O)NO)C2)CC1 [Entry 24],< 50
17,O=C(NO)[C@H]1CN(CC(=O)N2CCCC2)CCN1S(=O)(=O)c1cc(F)c(Oc2ccc(Cl)cc2)c(F)c1 [Entry 21],< 50
18,O=C(NO)[C@H]1CN(C(=O)N2CCOCC2)CCN1S(=O)(=O)c1ccc(Oc2ccc(F)cc2)c(F)c1 [Entry 8],< 50
19,O=C(NO)[C@H]1CN(C(=O)N2CCOCC2)CCN1S(=O)(=O)c1ccc(Oc2ccc(F)cc2)cc1 [Entry 2],< 50
20,CN(C)CCS(=O)(=O)N1CCN(S(=O)(=O)c2cc(F)c(Oc3ccc(Cl)cc3)c(F)c2)[C@@H](C(=O)NO)C1 [Entry 54],< 50

row,Compound,IC50 [nM]
1,COCCOC(=O)N1CCN(S(=O)(=O)c2ccc(Oc3ccc(F)cc3)cc2)[C@@H](C(=O)NO)C1 [Entry 1],< 50
2,CCOC(=O)N1CCN(CCS(=O)(=O)N2CCN(S(=O)(=O)c3cc(F)c(Oc4ccc(Cl)cc4)c(F)c3)[C@@H](C(=O)NO)C2)CC1 [Entry 56],< 50
3,CN(C)c1cccc2c(S(=O)(=O)N3CCN(S(=O)(=O)c4cc(F)c(Oc5ccc(Cl)cc5)c(F)c4)[C@@H](C(=O)NO)C3)cccc12 [Entry 60],50 to 1000
4,COCCOC(=O)N1CCN(S(=O)(=O)c2ccc(-c3cccc(F)c3)nc2)[C@@H](C(=O)NO)C1 [Entry 66],< 50
5,O=C(NO)[C@H]1CNCCN1S(=O)(=O)c1cc(F)c(Oc2ccc(F)cc2)c(F)c1 [Entry 11],50 to 1000
6,O=C(NO)[C@H]1CN(C(=O)N2CCOCC2)CCN1S(=O)(=O)c1cc(F)c(Oc2ccc(F)cc2)c(F)c1 [Entry 12],< 50
7,COCCOC(=O)N1CCN(S(=O)(=O)c2cc(F)c(Oc3ccc(F)cc3)c(F)c2)[C@@H](C(=O)NO)C1 [Entry 10],< 50
8,O=C(NO)[C@H]1CN(C(=O)NCCN2CCCC2)CCN1S(=O)(=O)c1cc(F)c(Oc2ccc(Cl)cc2)c(F)c1 [Entry 17],< 50
9,COCCN1CCN(S(=O)(=O)c2cc(F)c(Oc3ccc(Cl)cc3)c(F)c2)[C@@H](C(=O)NO)C1 [Entry 29],< 50
10,O=C(CN1CCOCC1)NC(=O)N1CCN(S(=O)(=O)c2cc(F)c(Oc3ccc(Cl)cc3)c(F)c2)[C@@H](C(=O)NO)C1 [Entry 46],< 50
11,CN1CCN(C(=O)N2CCN(S(=O)(=O)c3cc(F)c(Oc4ccc(Cl)cc4)c(F)c3)[C@@H](C(=O)NO)C2)CC1 [Entry 16],< 50
12,O=C(NO)[C@H]1CN(S(=O)(=O)c2cccc3cnccc23)CCN1S(=O)(=O)c1cc(F)c(Oc2ccc(Cl)cc2)c(F)c1 [Entry 48],< 50
13,O=C(O)CN1CCN(S(=O)(=O)c2cc(F)c(Oc3ccc(Cl)cc3)c(F)c2)[C@@H](C(=O)NO)C1 [Entry 63],50 to 1000
14,O=C(NO)[C@H]1CN(S(=O)(=O)Cc2ccncc2)CCN1S(=O)(=O)c1cc(F)c(Oc2ccc(Cl)cc2)c(F)c1 [Entry 34],< 50
15,O=C(NO)[C@H]1CN(S(=O)(=O)CCN2CCCCC2)CCN1S(=O)(=O)c1cc(F)c(Oc2ccc(Cl)cc2)c(F)c1 [Entry 53],< 50
16,O=C(NO)[C@H]1CN(C(=O)Cc2ccncc2)CCN1S(=O)(=O)c1cc(F)c(Oc2ccc(Cl)cc2)c(F)c1 [Entry 52],< 50
17,CN(C)c1ccc2ccc(S(=O)(=O)N3CCN(S(=O)(=O)c4cc(F)c(Oc5ccc(Cl)cc5)c(F)c4)[C@@H](C(=O)NO)C3)cc2c1 [Entry 50],1000 to 20000
18,COCCOC(=O)N1CCN(S(=O)(=O)c2ccc(Oc3ccc4c(c3)CCCC4)nc2)[C@@H](C(=O)NO)C1 [Entry 64],< 50
19,CN1CCN(C(=O)NS(=O)(=O)N2CCN(S(=O)(=O)c3cc(F)c(Oc4ccc(Cl)cc4)c(F)c3)[C@@H](C(=O)NO)C2)CC1 [Entry 39],< 50
20,CS(=O)(=O)N1CCN(S(=O)(=O)c2cc(F)c(Oc3ccc(Cl)cc3)c(F)c2)[C@@H](C(=O)NO)C1 [Entry 28],< 50

row,Compound,IC50 [nM]
1,CN1CCN(S(=O)(=O)c2cc(F)c(Oc3ccc(F)cc3)c(F)c2)[C@@H](C(=O)NO)C1 [Entry 14],50 to 1000
2,COCCOC(=O)N1CCN(S(=O)(=O)c2ccc(Oc3ccc(Cl)cc3)c(F)c2)[C@@H](C(=O)NO)C1 [Entry 4],< 50
3,O=C(CCl)NC(=O)N1CCN(S(=O)(=O)c2cc(F)c(Oc3ccc(Cl)cc3)c(F)c2)[C@@H](C(=O)NO)C1 [Entry 33],< 50
4,O=C(NO)[C@H]1CN(C(=O)N2CCOCC2)CCN1S(=O)(=O)c1ccc(Oc2ccc(Cl)cc2)c(F)c1 [Entry 6],< 50
5,C=CCN1CCN(S(=O)(=O)c2cc(F)c(Oc3ccc(Cl)cc3)c(F)c2)[C@@H](C(=O)NO)C1 [Entry 62],50 to 1000
6,O=C(NO)[C@H]1CN(S(=O)(=O)c2cc(F)c(O)c(F)c2)CCN1S(=O)(=O)c1cc(F)c(Oc2ccc(Cl)cc2)c(F)c1 [Entry 41],< 50
7,CCOC(=O)N1CCN(S(=O)(=O)c2cc(F)c(Oc3ccc(F)cc3)c(F)c2)[C@@H](C(=O)NO)C1 [Entry 13],< 50
8,O=C(NO)[C@H]1CN(C(=O)OCCN2CCCC2)CCN1S(=O)(=O)c1cc(F)c(Oc2ccc(Cl)cc2)c(F)c1 [Entry 18],< 50
9,O=C(NO)[C@H]1CN(C(=O)C(=O)N2CCOCC2)CCN1S(=O)(=O)c1cc(F)c(Oc2ccc(Cl)cc2)c(F)c1 [Entry 31],< 50
10,N#Cc1ccc(Oc2ccc(S(=O)(=O)N3CCN(C(=O)N4CCOCC4)C[C@@H]3C(=O)NO)cc2F)cc1 [Entry 7],< 50
11,O=C(NO)[C@H]1CN(S(=O)(=O)CCN2CCOCC2)CCN1S(=O)(=O)c1cc(F)c(Oc2ccc(Cl)cc2)c(F)c1 [Entry 57],50 to 1000
12,CNC(=O)CN1CCN(S(=O)(=O)c2cc(F)c(Oc3ccc(Cl)cc3)c(F)c2)[C@@H](C(=O)NO)C1 [Entry 19],< 50
13,COCCOC(=O)N1CCN(S(=O)(=O)c2ccc(Oc3ccc(C#N)cc3)c(F)c2)[C@@H](C(=O)NO)C1 [Entry 5],< 50
14,O=C(NO)[C@H]1CN(S(=O)(=O)NC(=O)N2CCCCC2)CCN1S(=O)(=O)c1cc(F)c(Oc2ccc(Cl)cc2)c(F)c1 [Entry 37],< 50
15,O=C(NO)[C@H]1CN(C(=O)OCc2ccccc2)CCN1S(=O)(=O)c1cc(F)c(Oc2ccc(Cl)cc2)c(F)c1 [Entry 32],< 50
16,COCCOC(=O)N1CCN(S(=O)(=O)c2cc(F)c(Oc3ccccc3)c(F)c2)[C@@H](C(=O)NO)C1 [Entry 40],< 50
17,CN(C)c1ccc2c(S(=O)(=O)N3CCN(S(=O)(=O)c4cc(F)c(Oc5ccc(Cl)cc5)c(F)c4)[C@@H](C(=O)NO)C3)cccc2c1 [Entry 49],1000 to 20000
18,CCCCCCC(=O)N1CCN(S(=O)(=O)c2cc(F)c(Oc3ccc(Cl)cc3)c(F)c2)[C@@H](C(=O)NO)C1 [Entry 43],< 50
19,COCCOC(=O)N1CCN(S(=O)(=O)c2ccc(Oc3ccc(F)cc3)c(F)c2)[C@@H](C(=O)NO)C1 [Entry 3],< 50
